Laboratory results reported in patent EP4420677A1, “VACCINES AGAINST TERT-POSITIVE TUMORS” (Altevax, priority 2023, dated 2024).
Peptide text beside a SMILES is read from it.

Tests used:
[1] = Peptide stability in solution at pH 7.4 (HPLC peak area vs reference); assay type: physicochemical; conditions: for Stability of peptides (ratio of the pick area on the indicated day/ pic area of a fresh solution of the same peptide): 7-day incubation in solution at pH7.4, - 20°C; for stability in solution (in words): in solution at physiological pH (pH 7.4)
Procedure: To develop a relevant vaccine, it is necessary to have a proper drug substance stability. To assess stability, the peptides were diluted at à 0,5 mg/mL in water, adjusted at pH 7.4, frozen at -20° C, and analyzed by HPLC (Hypersil GOLD C8 15cm x 4.6mm x 5µm (ThermoFisher) on the indicated day, using an elution buffer CH3CN 15%, TFA 0,1%. The pic area was compared to a reference standard.
Indeed, after 7 days at -20°C, the pic of SEQ ID NO: 4 was reduced by 53%, while SEQ ID NO: 7 was stable (> 95%) for at least 3 months at pH7.4 at -20°C, and at least 7 days at room temperature. Table 4: Stability of peptides after a 7-day incubation period in solution at pH7.4 at different temperature (ratio of the pick area on the indicated day/ pic area of a fresh solution of the same peptide)

[2] = Filterability and precipitation of the mixture peptide + melanin; assay type: physicochemical; conditions: mixture peptide + melanine in isotonic saline
Source text: Filterability of a medical formulation on a 0.2µ filter is important to achieve a sterile solution.

[3] = Peptide stability in solution at pH 7.4 (HPLC peak area vs reference); assay type: physicochemical
[4] = assay type: binding; conditions: pH 7.5
Procedure: L-Dopa alone (0.8mg/ml) was polymerized into melanin for 2h at pH 8.5 and 60°C under agitation. The reaction mixture was then filtered on a 10kDa filter, and the retentate containing the synthetic melanin was resuspended at pH 7.5 in phosphate buffer. Peptides were then added (at the weight ratio melanin/peptide of 2) and the mixtures were incubated for 18 hours at room temperature. Tricine-SDS-PAGE analysis was performed as described in Carpentier; 2017 (op. cit.). Briefly, samples (peptide-Mel or peptide alone) were loaded on acrylamide gels. Following electrophoresis, the gels were stained with Coomassie Brilliant Blue R-250 and imaged with the ChemiDoc XRS+ system (Bio-Rad Laboratory), allowing the quantification of the free peptide in the gel. The binding of peptides to melanin was expressed as the ratio: [amount of unbound peptide in samples Peptide-Mel / amount of peptides in control samples containing peptides alone]. […] Table 3: Binding of peptides on synthetic melanin. L-Dopa (0.8mg/ml) underwent an oxidative polymerization at pH 8.5 in aerobic conditions for 2 hours at 60°C. The reaction mixture was then filtered on a 10kDa filter, and the retentate containing the synthetic melanin was resuspended at pH 7.5. […] The percentage of peptides that bound to melanin was then quantified with SPS-page analysis

[5] = 7-day incubation in solution at pH7.4, 4°C
[6] = 7-day incubation in solution at pH7.4, Room temperature

| SMILES | Stability of peptides (ratio of the pick area on the indicated day/ pic area of a fresh solution of the same peptide) [1] [%] | stable (remaining peptide) ([1]; at least 3 months at pH7.4 at -20°C) [%] | stable (remaining peptide) ([1]; at least 7 days at room temperature, pH7.4) [%] | stability in solution (in words) [1] | time remaining in suspension [2] | Stability of peptides (ratio of the pick area on the indicated day/ pic area of a fresh solution of the same peptide) [3, 5] [%] | Stability of peptides (ratio of the pick area on the indicated day/ pic area of a fresh solution of the same peptide) [3, 6] [%] | percentage of peptides that bound to melanin [4] [%] |
| --- | --- | --- | --- | --- | --- | --- | --- | --- |
| CC[C@H](C)[C@H](NC(=O)CNC(=O)[C@@H](NC(=O)[C@H](CO)NC(=O)[C@H](CCC(N)=O)NC(=O)[C@H](CC(C)C)NC(=O)[C@H](CCCCN)NC(=O)[C@H](CO)NC(=O)[C@H](Cc1c[nH]c2ccccc12)NC(=O)[C@@H](NC(=O)[C@H](CO)NC(=O)[C@H](CCCCN)NC(=O)[C@@H](N)CO)C(C)C)[C@@H](C)CC)C(=O)N[C@@H](CCCNC(=N)N)C(=O)N[C@@H](CCC(N)=O)C(=O)N[C@@H](Cc1c[nH]cn1)C(=O)O [SEQ ID NO: 7, SKSVWSKLQSIGIRQH] (H-SKSVWSKLQSIGIRQH-OH) | 100 | > 95 | > 95 | very stable | more than 18 hours | 100 | 100 |  |
| CC[C@H](C)[C@H](NC(=O)CNC(=O)[C@@H](NC(=O)[C@H](CO)NC(=O)[C@H](CCC(N)=O)NC(=O)[C@H](CC(C)C)NC(=O)[C@H](CCCCN)NC(=O)[C@H](CO)NC(=O)[C@H](Cc1c[nH]c2ccccc12)NC(=O)[C@@H](NC(=O)[C@H](CO)NC(=O)[C@H](CCCCN)NC(=O)[C@@H](N)CS)C(C)C)[C@@H](C)CC)C(=O)N[C@@H](CCCNC(=N)N)C(=O)N[C@@H](CCC(N)=O)C(=O)N[C@@H](Cc1c[nH]cn1)C(=O)O [SEQ ID NO: 4, CKSVWSKLQSIGIRQH] (H-CKSVWSKLQSIGIRQH-OH) | 47 |  |  | highly unstable |  |  |  | 59 |
| CC[C@H](C)[C@H](NC(=O)CNC(=O)[C@@H](NC(=O)[C@H](CO)NC(=O)[C@H](CCC(N)=O)NC(=O)[C@H](CC(C)C)NC(=O)[C@H](CCCCN)NC(=O)[C@H](CO)NC(=O)[C@H](Cc1c[nH]c2ccccc12)NC(=O)[C@@H](NC(=O)[C@H](CO)NC(=O)[C@@H](N)CCCCN)C(C)C)[C@@H](C)CC)C(=O)N[C@@H](CCCNC(=N)N)C(=O)N[C@@H](CCC(N)=O)C(=O)N[C@@H](Cc1c[nH]cn1)C(=O)O [SEQ ID NO: 1, KSVWSKLQSIGIRQH, reference compound] | 100 |  |  |  |  | 98 | 92 |  |
| CC[C@H](C)[C@H](NC(=O)CNC(=O)[C@@H](NC(=O)[C@H](CO)NC(=O)[C@H](CCC(N)=O)NC(=O)[C@H](CC(C)C)NC(=O)[C@H](CCCCN)NC(=O)[C@H](CO)NC(=O)[C@H](Cc1c[nH]c2ccccc12)NC(=O)[C@@H](NC(=O)[C@H](CO)NC(=O)[C@H](CCCCN)NC(=O)[C@@H](N)CCSC)C(C)C)[C@@H](C)CC)C(=O)N[C@@H](CCCNC(=N)N)C(=O)N[C@@H](CCC(N)=O)C(=O)N[C@@H](Cc1c[nH]cn1)C(=O)O [SEQ ID NO: 5, MKSVWSKLQSIGIRQH] (H-MKSVWSKLQSIGIRQH-OH) | 23 |  |  | highly unstable |  | 25 | 3 |  |
